Target: TNFα (Homo sapiens, UniProt P01375)
Assay: TNFα Induced HEK Blue Cellular Assay
Assay type: cell-based
Settings: HEK Blue TNFα reporter cells, TNFα 100 pg/ml, 24 hrs at 37° C., secreted alkaline phosphatase (QUANTI-Blue) read at 620 nm; read-out: IC50 value
Method in brief: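 Reporter cells (10,000/well, DMEM + 10% FBS) with compound (final […] to 0.5 nM) stimulated with 100 pg/ml TNFα, 24 h at 37 °C, 5% CO2. Secreted alkaline phosphatase read at 620 nm; IC50 by 4-parameter logistic fit after background correction against stimulated/unstimulated DMSO controls.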

TNFα, sequence (P01375 77-233 limits assumed): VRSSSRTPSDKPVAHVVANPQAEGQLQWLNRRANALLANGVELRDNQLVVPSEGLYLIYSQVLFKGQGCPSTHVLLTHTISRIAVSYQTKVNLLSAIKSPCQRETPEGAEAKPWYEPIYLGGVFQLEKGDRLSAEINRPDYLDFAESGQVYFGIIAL

| SMILES | IC50 [nM] |
| --- | --- |
| CP(C)(=O)c1ncc(-c2ccc3nc4n(c3c2)[C@@H]2C[C@H]4NC(=O)c3cccc(OC(F)F)c32)cn1 [Example 1, (7R,14R)-1-(difluoromethoxy)-11-(2-(dimethylphosphoryl)pyrimidin-5-yl)-6,7-dihydro-7,14-methanobenzo[f]benzo[4,5]imidazo[1,2-a][1,4]diazocin-5(14H)-one] | 100 to 1000 |
| CN1C(=O)c2cccc(OC(F)F)c2[C@H]2C[C@@H]1c1nc3ccc(-c4ccc(P(C)(C)=O)c(F)c4)cc3n12 [Example 14, (1R,11R)-18-(difluoromethoxy)-5-[4-(dimethylphosphoryl)-3-fluorophenyl]-12-methyl-2,9,12-triazapentacyclo[9.8.1.0^{2,10}.0^{3,8}.0^{14,19}]icosa-3(8),4,6,9,14(19),15,17-heptaen-13-one] | < 100 |
| [2H]C([2H])([2H])N1C(=O)c2cccc(OC(F)F)c2[C@H]2C[C@@H]1c1nc3ccc(-c4cnc(P(C)(C)=O)cc4Cl)cc3n12 [Example 93, (7R,14R)-11-(4-chloro-6-(dimethylphosphoryl)pyridin-3-yl)-1-(difluoromethoxy)-6-(methyl-d3)-6,7-dihydro-7,14-methanobenzo[f]benzo[4,5]imidazo[1,2-a][1,4]diazocin-5(14H)-one] | < 100 |
| CCN1C(=O)c2cccc(OC(F)F)c2[C@H]2C[C@@H]1c1nc3ccc(-c4cc(F)c(P(C)(C)=O)c(F)c4)cc3n12 [Example 46, (1R,11R)-18-(difluoromethoxy)-5-[4-(dimethylphosphoryl)-3,5-difluorophenyl]-12-ethyl-2,9,12-triazapentacyclo[9.8.1.0^{2,10}.0^{3,8}.0^{14,19}]icosa-3(8),4,6,9,14(19),15,17-heptaen-13-one] | < 100 |
| [2H]C([2H])([2H])N1C(=O)c2cccc(OCC)c2[C@H]2C[C@@H]1c1nc3ccc(-c4cc(F)c(P(C)(C)=O)cc4F)cc3n12 [Example 75, (7R,14R)-11-(4-(dimethylphosphoryl)-2,5-difluorophenyl)-1-ethoxy-6-(methyl-d3)-6,7-dihydro-7,14-methanobenzo[f]benzo[4,5]imidazo[1,2-a][1,4]diazocin-5(14H)-one] | < 100 |
| CN1C(=O)c2cccc(OC(F)F)c2[C@H]2C[C@@H]1c1nc3ccc(-c4ccc(NCP(C)(C)=O)nc4)cc3n12 [Example 23, (1R,11R)-18-(difluoromethoxy)-5-(6-{[(dimethylphosphoryl)methyl]amino}pyridin-3-yl)-12-methyl-2,9,12-triazapentacyclo[9.8.1.0^{2,10}.0^{3,8}.0^{14,19}]icosa-3(8),4,6,9,14(19),15,17-heptaen-13-one] | < 100 |
| [2H]C([2H])([2H])N1C(=O)c2cccc(OC(F)F)c2[C@H]2C[C@@H]1c1nc3ccc(-c4cc(F)c(C(C)P(C)(C)=O)cc4C)cc3n12 (single isomer, unassigned) [Example 118, (7R,14R)-1-(difluoromethoxy)-11-(4-((R or S)-1-(dimethylphosphoryl)ethyl)-5-fluoro-2-methylphenyl)-6-(methyl-d3)-6,7-dihydro-7,14-methanobenzo[f]benzo[4,5]imidazo[1,2-a][1,4]diazocin-5(14H)-one] | < 100 |
| CP(C)(=O)c1ccc(-c2ccc3nc4n(c3c2F)[C@@H]2C[C@H]4NC(=O)c3cccc(OC(F)F)c32)cc1F [Example 140, (7R,14R)-1-(difluoromethoxy)-11-(4-(dimethylphosphoryl)-3-fluorophenyl)-12-fluoro-6,7-dihydro-7,14-methanobenzo[f]benzo[4,5]imidazo[1,2-a][1,4]diazocin-5(14H)-one] | < 100 |
| [2H]C([2H])([2H])N1C(=O)c2cccc(OC(F)F)c2[C@H]2C[C@@H]1c1nc3ccc(-c4ccc(P(C)(C)=O)c(F)c4)nc3n12 [Example 141, (7R,14R)-1-(difluoromethoxy)-11-(4-(dimethylphosphoryl)-3-fluorophenyl)-6-(methyl-d3)-6,7-dihydro-7,14-methanobenzo[f]pyrido[3′,2′:4,5]imidazo[1,2-a][1,4]diazocin-5(14H)-one] | < 100 |
| [2H]C([2H])([2H])N1C(=O)c2cccc(OC(F)F)c2[C@H]2C[C@@H]1c1nc3ccc(-c4ccc(C(C)P(C)(C)=O)c(F)c4)cc3n12 (single isomer, unassigned) [Example 100, (7R,14R)-1-(difluoromethoxy)-11-(4-((R or S)-1-(dimethylphosphoryl)ethyl)-3-fluorophenyl)-6-(methyl-d3)-6,7-dihydro-7,14-methanobenzo[f]benzo[4,5]imidazo[1,2-a][1,4]diazocin-5(14H)-one] | < 100 |
| [2H]C([2H])([2H])N1C(=O)c2cccc(OC(F)F)c2[C@H]2C[C@@H]1c1nc3ccc(-c4ccc(C(C)P(C)(C)=O)cc4)cc3n12 (single isomer, unassigned) [Example 86, (7R,14R)-1-(difluoromethoxy)-11-(4-((R or S)-1-(dimethylphosphoryl)ethyl)phenyl)-6-(methyl-d3)-6,7-dihydro-7,14-methanobenzo[f]benzo[4,5]imidazo[1,2-a][1,4]diazocin-5(14H)-one] | < 100 |
| [2H]C([2H])([2H])N1C(=O)c2cccc(OC(F)F)c2[C@H]2C[C@@H]1c1nc3ccc(-c4ccc([C@@H](C)P(C)(C)=O)c(F)c4C)cc3n12 (single isomer, unassigned) [Example 113, (7R,14R)-1-(difluoromethoxy)-11-(4-((R or S)-1-(dimethylphosphoryl)ethyl)-3-fluoro-2-methylphenyl)-6-(methyl-d3)-6,7-dihydro-7,14-methanobenzo[f]benzo[4,5]imidazo[1,2-a][1,4]diazocin-5(14H)-one] | < 100 |
| CP(C)(=O)c1ccc(-c2ccc3nc4n(c3c2)[C@@H]2C[C@H]4NC(=O)c3cccc(OC(F)F)c32)c(F)c1 [Example 31, (1R,11R)-18-(difluoromethoxy)-5-[4-(dimethylphosphoryl)-2-fluorophenyl]-2,9,12-triazapentacyclo[9.8.1.0^{2,10}.0^{3,8}.0^{14,19}]icosa-3(8),4,6,9,14(19),15,17-heptaen-13-one] | < 100 |
| [2H]C([2H])([2H])N1C(=O)c2cccc(OC(F)F)c2[C@H]2C[C@@H]1c1nc3ccc(-c4ccc(P(C)(C)=O)nc4)cc3n12 [Example 17, (7R,14R)-1-(difluoromethoxy)-11-(6-(dimethylphosphoryl)pyridin-3-yl)-6-(methyl-d3)-6,7-dihydro-7,14-methanobenzo[f]benzo[4,5]imidazo[1,2-a][1,4]diazocin-5(14H)-one] | < 100 |
| [2H]C([2H])([2H])N1C(=O)c2cccc(OC(F)F)c2[C@H]2C[C@@H]1c1nc3ccc(-c4ccc([C@H](C)P(C)(C)=O)c(F)c4C)cc3n12 (single isomer, unassigned) [Example 114, (7R,14R)-1-(difluoromethoxy)-11-(4-((S or R)-1-(dimethylphosphoryl)ethyl)-3-fluoro-2-methylphenyl)-6-(methyl-d3)-6,7-dihydro-7,14-methanobenzo[f]benzo[4,5]imidazo[1,2-a][1,4]diazocin-5(14H)-one] | < 100 |
| [2H]C([2H])([2H])N1C(=O)c2cccc(OC(F)F)c2[C@H]2C[C@@H]1c1nc3ccc(-c4ccc(P(C)(C)=O)c(C)c4)cc3n12 [Example 105, (7R,14R)-1-(difluoromethoxy)-11-(4-(dimethylphosphoryl)-3-methylphenyl)-6-(methyl-d3)-6,7-dihydro-7,14-methanobenzo[f]benzo[4,5]imidazo[1,2-a][1,4]diazocin-5(14H)-one] | < 100 |

— patent publication US12384808B2, “Modulators of TNF-α activity” (Forward Therapeutics, Inc., priority 2022, dated 2025)
